Source: PubChem BioAssay (NCI)
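The compound was tested at five concentrations on cells cultured in 96-well plates, with a 48-hour exposure period. GI50 is the concentration that inhibits growth by half. TGI: concentration producing complete growth inhibition.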

Columns and labels:
Assay in all cases: inhibition of tumour cell growth, NCI panel, 48 h
HCC-2998 colon = test system: HCC-2998 colon
NCI-H226 lung = test system: NCI-H226 lung
SK-OV-3 ovarian = test system: SK-OV-3 ovarian
A498 renal = test system: A498 renal
OVCAR-8 ovarian = test system: OVCAR-8 ovarian
MOLT-4 leukemia = test system: MOLT-4 leukemia
MCF7 breast = test system: MCF7 breast
HL-60(TB) leukemia = test system: HL-60(TB) leukemia
M14 melanoma = test system: M14 melanoma
UACC-257 melanoma = test system: UACC-257 melanoma
DU-145 prostate = test system: DU-145 prostate
LOX IMVI melanoma = test system: LOX IMVI melanoma
MDA-N = test system: MDA-N
HOP-62 NSCLC = test system: HOP-62 NSCLC
SF-295 CNS = test system: SF-295 CNS
OVCAR-4 ovarian = test system: OVCAR-4 ovarian
SF-539 CNS = test system: SF-539 CNS
BT-549 breast = test system: BT-549 breast
SK-MEL-28 melanoma = test system: SK-MEL-28 melanoma
TK-10 renal = test system: TK-10 renal
MDA-MB-231 breast = test system: MDA-MB-231 breast
HS 578T breast = test system: HS 578T breast
SNB-75 CNS = test system: SNB-75 CNS
NCI-H460 lung = test system: NCI-H460 lung
SR leukemia = test system: SR leukemia
CAKI-1 renal = test system: CAKI-1 renal
SF-268 CNS = test system: SF-268 CNS
MALME-3M melanoma = test system: MALME-3M melanoma
RXF 393 renal = test system: RXF 393 renal
IGROV1 ovarian = test system: IGROV1 ovarian
UACC-62 melanoma = test system: UACC-62 melanoma
KM12 colon = test system: KM12 colon
A549 NSCLC = test system: A549 NSCLC
HOP-92 NSCLC = test system: HOP-92 NSCLC
NCI-H522 lung = test system: NCI-H522 lung
NCI-H23 lung = test system: NCI-H23 lung
CCRF-CEM leukemia = test system: CCRF-CEM leukemia
UO-31 renal = test system: UO-31 renal
HCT-116 colon = test system: HCT-116 colon
SW-620 colon = test system: SW-620 colon
ACHN renal = test system: ACHN renal
PC-3 prostate = test system: PC-3 prostate
SNB-19 CNS = test system: SNB-19 CNS
786-0 renal = test system: 786-0 renal
HCT-15 colon = test system: HCT-15 colon
EKVX NSCLC = test system: EKVX NSCLC
SN12C renal = test system: SN12C renal
COLO 205 colon = test system: COLO 205 colon
MDA-MB-435 = test system: MDA-MB-435
T-47D breast = test system: T-47D breast
OVCAR-3 ovarian = test system: OVCAR-3 ovarian
RPMI-8226 leukemia = test system: RPMI-8226 leukemia
OVCAR-5 ovarian = test system: OVCAR-5 ovarian
U251 CNS = test system: U251 CNS
NCI/ADR-RES ovarian = test system: NCI/ADR-RES ovarian
K-562 leukemia = test system: K-562 leukemia
SK-MEL-2 melanoma = test system: SK-MEL-2 melanoma
SK-MEL-5 melanoma = test system: SK-MEL-5 melanoma

SMILES: Cc1cc(C)c2c(=O)cc(-c3cccc(Cl)c3)[nH]c2n1
- TGI (HCC-2998 colon): > 100 µM
- TGI (NCI-H226 lung): > 100 µM
- TGI (SK-OV-3 ovarian): > 100 µM
- TGI (A498 renal): > 100 µM
- TGI (OVCAR-8 ovarian): > 100 µM
- TGI (MOLT-4 leukemia): > 38.8 µM
- TGI (MCF7 breast): > 100 µM
- TGI (HL-60(TB) leukemia): 2.15 µM
- TGI (M14 melanoma): > 100 µM
- TGI (UACC-257 melanoma): > 94.1 µM
- TGI (DU-145 prostate): > 100 µM
- TGI (LOX IMVI melanoma): > 34.2 µM
- TGI (MDA-N): 0.0529 µM
- TGI (HOP-62 NSCLC): > 100 µM
- TGI (SF-295 CNS): 0.33 µM
- TGI (OVCAR-4 ovarian): > 100 µM
- TGI (SF-539 CNS): 0.464 µM
- TGI (BT-549 breast): 85.3 µM
- TGI (SK-MEL-28 melanoma): > 100 µM
- TGI (TK-10 renal): > 100 µM
- TGI (MDA-MB-231 breast): 8.09 µM
- TGI (HS 578T breast): > 100 µM
- TGI (SNB-75 CNS): > 100 µM
- TGI (NCI-H460 lung): > 100 µM
- TGI (SR leukemia): > 100 µM
- GI50 (CAKI-1 renal): 0.204 µM
- TGI (CAKI-1 renal): > 100 µM
- TGI (SF-268 CNS): > 100 µM
- TGI (MALME-3M melanoma): > 100 µM
- TGI (RXF 393 renal): > 100 µM
- TGI (IGROV1 ovarian): > 100 µM
- TGI (UACC-62 melanoma): > 100 µM
- TGI (KM12 colon): > 100 µM
- TGI (A549 NSCLC): > 100 µM
- TGI (HOP-92 NSCLC): > 100 µM
- TGI (NCI-H522 lung): 0.742 µM
- TGI (NCI-H23 lung): > 100 µM
- TGI (CCRF-CEM leukemia): > 100 µM
- TGI (UO-31 renal): > 100 µM
- TGI (HCT-116 colon): > 23.1 µM
- TGI (SW-620 colon): > 100 µM
- TGI (ACHN renal): > 100 µM
- TGI (PC-3 prostate): 0.0967 µM
- TGI (SNB-19 CNS): > 100 µM
- TGI (786-0 renal): > 55.1 µM
- TGI (HCT-15 colon): > 100 µM
- TGI (EKVX NSCLC): > 100 µM
- TGI (SN12C renal): > 38.3 µM
- TGI (COLO 205 colon): > 67.1 µM

SMILES: N#Cc1ccsc1Nc1ccccc1[N+](=O)[O-]
- TGI (HCC-2998 colon): > 100 µM
- TGI (NCI-H226 lung): > 100 µM
- TGI (SK-OV-3 ovarian): > 100 µM
- TGI (A498 renal): > 100 µM
- TGI (OVCAR-8 ovarian): > 100 µM
- TGI (MOLT-4 leukemia): > 100 µM
- TGI (MDA-MB-435): > 100 µM
- TGI (MCF7 breast): > 100 µM
- TGI (M14 melanoma): > 100 µM
- TGI (UACC-257 melanoma): > 100 µM
- TGI (DU-145 prostate): > 100 µM
- TGI (T-47D breast): > 100 µM
- TGI (MDA-N): > 100 µM
- TGI (HOP-62 NSCLC): > 100 µM
- TGI (SF-295 CNS): > 100 µM
- TGI (OVCAR-3 ovarian): > 100 µM
- TGI (OVCAR-4 ovarian): > 100 µM
- TGI (SF-539 CNS): > 100 µM
- TGI (BT-549 breast): > 100 µM
- TGI (SK-MEL-28 melanoma): > 100 µM
- TGI (RPMI-8226 leukemia): > 100 µM
- TGI (MDA-MB-231 breast): > 100 µM
- TGI (SNB-75 CNS): > 100 µM
- TGI (NCI-H460 lung): > 100 µM
- TGI (SR leukemia): > 100 µM
- TGI (CAKI-1 renal): > 100 µM
- TGI (SF-268 CNS): > 100 µM
- TGI (MALME-3M melanoma): > 100 µM
- TGI (RXF 393 renal): > 100 µM
- TGI (IGROV1 ovarian): > 100 µM
- TGI (UACC-62 melanoma): > 100 µM
- TGI (KM12 colon): > 100 µM
- TGI (A549 NSCLC): > 100 µM
- TGI (OVCAR-5 ovarian): > 100 µM
- TGI (HOP-92 NSCLC): > 100 µM
- TGI (NCI-H522 lung): > 100 µM
- TGI (NCI-H23 lung): > 100 µM
- TGI (CCRF-CEM leukemia): > 100 µM
- TGI (UO-31 renal): > 100 µM
- TGI (HCT-116 colon): > 100 µM
- TGI (SW-620 colon): > 100 µM
- TGI (ACHN renal): > 100 µM
- TGI (U251 CNS): > 100 µM
- TGI (NCI/ADR-RES ovarian): > 100 µM
- TGI (PC-3 prostate): > 100 µM
- TGI (SNB-19 CNS): > 100 µM
- TGI (786-0 renal): > 100 µM
- TGI (HCT-15 colon): > 100 µM
- TGI (EKVX NSCLC): > 100 µM
- TGI (SN12C renal): > 100 µM
- TGI (COLO 205 colon): > 100 µM
- TGI (K-562 leukemia): > 100 µM

SMILES: Cc1ccc2c(=O)cc(-c3cccc(Cl)c3)[nH]c2n1
- TGI (HCC-2998 colon): 41.5 µM
- TGI (NCI-H226 lung): 25.9 µM
- TGI (SK-OV-3 ovarian): > 100 µM
- TGI (A498 renal): > 100 µM
- TGI (OVCAR-8 ovarian): > 100 µM
- TGI (MDA-MB-435): 0.0463 µM
- TGI (MCF7 breast): > 36 µM
- TGI (M14 melanoma): > 100 µM
- TGI (UACC-257 melanoma): > 100 µM
- TGI (DU-145 prostate): > 100 µM
- TGI (LOX IMVI melanoma): > 100 µM
- TGI (MDA-N): > 100 µM
- TGI (SF-295 CNS): 1.36 µM
- TGI (OVCAR-3 ovarian): 0.0274 µM
- TGI (OVCAR-4 ovarian): > 100 µM
- TGI (SF-539 CNS): 0.0443 µM
- TGI (BT-549 breast): > 100 µM
- TGI (SK-MEL-28 melanoma): > 100 µM
- TGI (TK-10 renal): > 100 µM
- TGI (MDA-MB-231 breast): 3.63 µM
- TGI (HS 578T breast): > 100 µM
- TGI (NCI-H460 lung): > 100 µM
- TGI (SR leukemia): > 100 µM
- TGI (CAKI-1 renal): > 100 µM
- TGI (SK-MEL-2 melanoma): > 100 µM
- TGI (SF-268 CNS): > 100 µM
- TGI (MALME-3M melanoma): > 100 µM
- TGI (IGROV1 ovarian): > 100 µM
- TGI (UACC-62 melanoma): > 100 µM
- TGI (KM12 colon): > 37.5 µM
- TGI (A549 NSCLC): > 100 µM
- TGI (OVCAR-5 ovarian): > 100 µM
- TGI (HOP-92 NSCLC): > 100 µM
- TGI (NCI-H522 lung): 1.61 µM
- TGI (NCI-H23 lung): > 31.6 µM
- TGI (SK-MEL-5 melanoma): 4.7 µM
- TGI (CCRF-CEM leukemia): > 100 µM
- TGI (UO-31 renal): > 100 µM
- TGI (SW-620 colon): > 100 µM
- TGI (ACHN renal): > 100 µM
- TGI (PC-3 prostate): > 100 µM
- TGI (SNB-19 CNS): > 100 µM
- TGI (786-0 renal): > 100 µM
- TGI (HCT-15 colon): > 35.8 µM
- TGI (EKVX NSCLC): > 100 µM
- TGI (SN12C renal): > 100 µM
- TGI (COLO 205 colon): > 35.8 µM
